The values that follow come from patent US10581022B2, “Polymerizable liquid crystal compound, composition, liquid crystal polymerization film-kind thereof and use thereof” (JNC CORPORATION, priority 2015, dated 2020).

The data set can be described thus: Solubility of compound in solvent. As to conditions: 40° C., after 30 minutes, visual. Also noted: key: Good: represents that the compound was completely dissolved; Poor: represents that an insoluble matter remained. The data set is classed as physicochemical. The method, then: With regard to various solvents, a specific amount of compound (1-1-1-1) was added to various solvents each, and the resulting mixture was warmed in warm water at 40° C., and an aspect after 30 minutes was visually confirmed. A similar method was tried in compound (1-1-2-1), compound (C-1) and compound (C-2) in place of compound (1-1-1-1).
An amount of the compound added as described in Table 4 is expressed in terms of a relative value when a total weight of the solvent and the compound is taken as 100% by weight. A term “Good” in Table 4 represents that the compound was completely dissolved, and a term “Poor” in Table 4 represents that an insoluble matter remained.

As to `C=CC(=O)OCCCCCCOc1ccc(CCC(=O)O[C@H]2CC[C@H](C(=O)Oc3ccc(OC(=O)[C@H]4CC[C@H](OC(=O)CCc5ccc(OCCCCCCOC(=O)C=C)cc5)CC4)c4nc(-c5ccccc5)cnc34)CC2)cc1` [Compound (1-1-1-1)], where the note is “15% by weight of compound”, the “solubility in 2-acetoxy-1-methoxypropane” value was “Poor”, the “solubility in 4-methyl-2-pentanone” value is recorded as “Poor”, the solubility in cyclohexanone entry was “Good” and the solubility in methoxybenzene entry is “Good”. Besides, where the note is “30% by weight of compound”, the “solubility in 2-acetoxy-1-methoxypropane” value is reported as “Poor”, the “solubility in 4-methyl-2-pentanone” value is “Poor”, the solubility in cyclohexanone entry was “Good” and the solubility in methoxybenzene entry is listed as “Good”.
On to `C=CC(=O)OCCCCCCOc1ccc(CCC(=O)O[C@H]2CC[C@H](C(=O)Oc3ccc(OC(=O)[C@H]4CC[C@H](OC(=O)CCc5ccc(OCCCCCCOC(=O)C=C)cc5)CC4)c4nc(-c5ccccc5)c(C)nc34)CC2)cc1` [Compound (1-1-2-1)], for which, for the setting “15% by weight of compound”, the “solubility in 2-acetoxy-1-methoxypropane” value was “Good”, the “solubility in 4-methyl-2-pentanone” value is on record as “Good”, the solubility in cyclohexanone result is given as “Good” and the solubility in methoxybenzene entry is “Good”. Further, where the note is “30% by weight of compound”, the “solubility in 2-acetoxy-1-methoxypropane” value is on record as “Poor”, the “solubility in 4-methyl-2-pentanone” value is reported as “Poor”, the solubility in cyclohexanone entry is given as “Good” and the solubility in methoxybenzene entry is “Good”.
As to `C=CC(=O)OCCCCOc1ccc(OC(=O)[C@H]2CC[C@H](C(=O)Oc3ccc(OC(=O)[C@H]4CC[C@H](C(=O)Oc5ccc(OCCCCOC(=O)C=C)cc5)CC4)c4sc(-c5ccccc5)nc34)CC2)cc1` [Compound (C-1)], under “15% by weight of compound”, the “solubility in 2-acetoxy-1-methoxypropane” value is “Poor”, the “solubility in 4-methyl-2-pentanone” value is “Poor”, the solubility in cyclohexanone entry is recorded as “Good” and the solubility in methoxybenzene result is reported as “Good”. Besides, where the note is “30% by weight of compound”, the “solubility in 2-acetoxy-1-methoxypropane” value was “Poor”, the “solubility in 4-methyl-2-pentanone” value is recorded as “Poor”, the solubility in cyclohexanone result is “Poor” and the solubility in methoxybenzene result is listed as “Poor”.
`C=CC(=O)OCCCCOc1ccc(OC(=O)C2CCC(C(=O)Oc3ccc(OC(=O)C4CCC(C(=O)Oc5ccc(OCCCCOC(=O)C=C)cc5)CC4)c(C=NNc4nc5ccccc5s4)c3)CC2)cc1` (centres unmarked) [Compound (C-2)]: for the setting “15% by weight of compound”, the “solubility in 2-acetoxy-1-methoxypropane” value is given as “Poor”, the “solubility in 4-methyl-2-pentanone” value is “Poor”, the solubility in cyclohexanone entry is “Good” and the solubility in methoxybenzene result is “Good”. Moreover, for the setting “30% by weight of compound”, the “solubility in 2-acetoxy-1-methoxypropane” value was “Poor”, the “solubility in 4-methyl-2-pentanone” value is given as “Poor”, the solubility in cyclohexanone result is recorded as “Poor” and the solubility in methoxybenzene result was “Poor”.
